How the values were obtained:
Format in all cases: cell-based
CCR5 locus [1] = experiment: T7E1 analysis of gene disruption at CCR5 after Cas9 RNP electroporation of primary human T lymphocytes; details: human CD4+ T lymphocytes, WT Cas9 RNP, 5 μg each RNP per 200,000 cells, 72 hours after electroporation
From the text: While transplantation of autologous CD34^+ HSCs genetically modified to prevent expression of the wild-type CXCR4 or the CCR5 would provide a long-term cure to HIV infection, the myeloablative conditioning associated with HSC transplantation destroys host adaptive immunity […] until the T cell pool is reconstituted after HSC engraftment is acheived, which can take several months. This delay in adaptive immune reconstitution puts patients at risk for the development of opportunistic infections during the acute phase of early engraftment following HSC transplantation. […] In this Example, single and multiplex genome editing in human T lymphocytes after electroporation of Cas9 RNP targeting the CXCR4 locus, the CCR5 locus, or both simultaneously (multiplexing) was evaluated after electroporation of CXCR4 and CCR5 gRNAs that were in vitro transcribed and modified to have an ARCA cap at the 5′ end and a polyA (20A) tail at the 3′ end. […] Table 16 depicts experimental design associated with Example 9 to evaluate gene editing as determined by T7E1 endonuclease assay analysis of the CXCR4 and CCR5 loci after electroporation of primary human T lymphocytes with S. aureus and/or S. pyogenes RNPs. […]

CCR5 locus [2] = experiment: T7E1 endonuclease assay at CCR5 after Cas9 RNP electroporation of human cord blood CD34+ HSCs; details: human CB CD34+ HSCs, WT Cas9 RNP, 5 μg each per 200,000 cells, 72 hours after electroporation
From the text: Transplantation of autologous CD34^+ hematopoietic stem cells (HSCs, also known as hematopoietic stem/progenitor cells or HSPCs) that have been edited to disrupt expression of CXCR4 or CCR5 gene products would prevent entry of the HIV virus HSC progeny that are normally susceptible to HIV infection (e.g., macrophages and CD4 T lymphocytes). Multiplex genome editing with the Cas9 RNP complexed to modified gRNAs precisely alters more than one endogenous gene targets by creating indels at two different cut sites can lead to knock down of gene expression at multiple edited loci. In this Example, single target and multiplex genome editing was evaluated in human umbilical cord blood (CB) CD34^+ cells after electroporation of wild-type S. pyogenes Cas9, wild-type S. aureus Cas9 or D10A nickase. Briefly, Cas9 protein was complexed with modified sgRNAs targeting CXCR4 or CCR5. […] Seventy-two hours after electroporation of RNP with the Amaxa nucleofector system, CD34^+ HSCs were collected, gDNA isolated and CXCR4 and CCR5 PCR products analyzed by T7E1 endonuclease assay to evaluate targeted disruption of these HIV co-receptors (Table 19). Table 19 depicts experimental design associated with Example 10 to evaluate gene editing determined by T7E1 endonuclease assay analysis of the at CXCR4 and CCR5 loci after electroporation of primary human CD34^+ HSCs with S. aureus and/or S. pyogenes RNPs.

human CCR5 gene = experiment: T7E1 endonuclease assay of CCR5 PCR product after electroporation of S. aureus Cas9 plasmid and gRNA STITCHR product into K562 cells; details: 750 ng S. aureus Cas9 plasmid DNA and 250 ng STITCHR product, 48 and 72 hours after electroporation
From the text: To identify gRNAs that efficiently target disruption of the human CCR5 gene, eleven gRNAs were selected from a larger list of gRNAs obtained from in silico prediction of gRNAs with S. aureus specific PAM sequences. In silico predicted gRNAs were tiered according to the strategy described in Section 8. An abbreviated list of eleven gRNAs with the lowest predictive off-target scores were selected for subsequent screening experiments, based on proximity to the naturally occurring de1ta32 mutation in CCR5 that has been associated with resistance to HIV. The target-specific complementary region of the selected list of eleven gRNAs are depicted in Table 15.
A DNA plasmid encoding an S. aureus expression cassette (AF002) and a gRNA-specific STITCHR product, which is a DNA molecule consisting of a U6 promoter driving expression of the chimeric gRNA (i.e., a target-specific complementary sequence and the S. aureus gRNA scaffold), were electroporated into K562 cells using the Amaxa Nucleofector system and the program and protocol for K562 cells per the manufacturer's instructions. In brief, 750 ng S. aureus Cas9 plasmid DNA and 250 ng of STITCHR product were used for each gRNA. […]

## CCR5_Sa3: S. aureus gRNA targeting CCR5; GUGGUGACAAGUGUGAUCAC (SEQ ID NO: 488) (RNA, backbone not given here; in vitro transcribed gRNA with scaffold, 5' ARCA cap, 3' polyA (20A) tail)
CCR5 locus [1]
  % editing at CCR5: 1.98%
CCR5 locus [2]
  % editing at CCR5: 0.44%
Human CCR5 gene
  indels in CCR5: about 39%

Reference: patent US20180119123A1, “CRISPR/CAS-RELATED METHODS AND COMPOSITIONS FOR TREATING HIV INFECTION AND AIDS” (EDITAS MEDICINE, INC., priority 2015, published 2018)
